Measured values as given in patent publication US7498321B2, “17β-carbothioate 17α-arylcarbonyloxyloxy androstane derivative as anti-inflammatory agents” (Glaxo Group Limited, priority 2000, dated 2009).
Several values for one entry are separate records, joined by “and”; a condition that tells them apart may be missing. Equal entries are not always repeated. Blank lines part the entries; values can stand above or below the compound they belong to.

Tests used:
[1] = target: T1, glucocorticoid receptor (GR) (Homo sapiens, UniProt P04150); test: Functional in vitro assay of glucocorticoid agonist activity (NF-κB/ELAM-sPAP reporter in A549 cells, TNF stimulated); type: cell-based; details: in vitro functional glucocorticoid agonist assays; versus Example 1
T1 construct: A549 cells stably transfected with a reporter gene containing the NF-κB responsive elements from the ELAM gene promoter; endogenous in cells; host or cells: A549 human lung epithelial cells (stably transfected with reporter only)
T1 sequence (P04150 1-777): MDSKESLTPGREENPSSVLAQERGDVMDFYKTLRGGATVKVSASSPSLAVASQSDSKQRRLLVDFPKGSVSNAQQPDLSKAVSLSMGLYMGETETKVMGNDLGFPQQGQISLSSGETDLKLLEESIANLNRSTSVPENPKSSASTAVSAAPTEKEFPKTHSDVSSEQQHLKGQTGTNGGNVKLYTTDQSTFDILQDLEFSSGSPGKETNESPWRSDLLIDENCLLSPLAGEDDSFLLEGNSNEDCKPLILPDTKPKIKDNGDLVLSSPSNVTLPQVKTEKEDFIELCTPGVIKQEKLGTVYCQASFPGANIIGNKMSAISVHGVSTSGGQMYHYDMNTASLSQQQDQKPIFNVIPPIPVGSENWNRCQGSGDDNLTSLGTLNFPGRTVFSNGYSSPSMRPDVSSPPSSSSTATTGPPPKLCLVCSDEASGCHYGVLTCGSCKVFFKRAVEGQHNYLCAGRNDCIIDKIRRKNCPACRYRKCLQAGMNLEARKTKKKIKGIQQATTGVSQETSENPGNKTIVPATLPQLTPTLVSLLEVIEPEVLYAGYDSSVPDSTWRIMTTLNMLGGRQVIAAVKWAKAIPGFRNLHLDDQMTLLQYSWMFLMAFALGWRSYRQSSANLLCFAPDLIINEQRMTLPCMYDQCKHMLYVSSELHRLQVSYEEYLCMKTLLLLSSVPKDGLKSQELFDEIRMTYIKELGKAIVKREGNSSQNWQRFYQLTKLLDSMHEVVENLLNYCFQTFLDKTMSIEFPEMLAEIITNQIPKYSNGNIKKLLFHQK
Method: Pharmacological activity was assessed in a functional in vitro assay of glucocorticoid agonist activity which is generally predictive of anti-inflammatory or anti-allergic activity in vivo.
The functional assay was based on that described by K. P. Ray et al., Biochem J. (1997), 328, 707-715. A549 cells stably transfected with a reporter gene containing the NF-κB responsive elements from the ELAM gene promoter coupled to sPAP (secreted alkaline phosphatase) were treated with test compounds at appropriate doses for 1 hour at 37° C. The cells were then stimulated with tumour necrosis factor (TNF, 10 ng/ml) for 16 hours, at which time the amount of alkaline phosphatase produced is measured by a standard colourimetric assay. Dose response curves were constructed from which EC50 values were estimated.

[2] = Pharmacokinetics after intravenous (IV) and oral dosing in rats; type: in vivo, male Wistar Han rats; details: rat; for plasma clearance (in words): in vivo
[3] = Pharmacokinetics after intra-tracheal dry powder dosing in the pig; type: in vivo; details: for time after dosing up to which quantifiable in plasma: anaesthetised pigs, intra-tracheal 1 mg, LLOQ 10 (Example 1) and 20 pg/mL (fluticasone propionate)
Method: Serial blood samples were taken for up to 8 h following dosing.

[4] = Pharmacokinetics after intravenous administration in the anaesthetised pig; type: in vivo
Excerpt: The clearance of these two glucocortocoids is similar is this experimental pig model.

human hepatocytes = test: In vitro metabolism in human hepatocytes; type: in vitro ADME; details: for 17-β acid metabolite production: 37° C., 10 μM
rat hepatocytes = test: In vitro metabolism in rat hepatocytes; type: in vitro ADME

SMILES: C[C@@H]1C[C@H]2[C@@H]3C[C@H](F)C4=CC(=O)C=C[C@]4(C)[C@@]3(F)[C@@H](O)C[C@]2(C)[C@@]1(OC(=O)c1ccco1)C(=O)O [Metabolite (X)]
fold less active than the parent compound [1]: > 1000 fold

SMILES: Cc1cc(C(=O)OC2(C(=O)SCF)C(C)CC3C4CC(F)C5=CC(=O)C=CC5(C)C4(F)C(O)CC32C)no1 (stereo not drawn) [Example 24, 6α,9α-Difluoro-11β-hydroxy-16α-methyl-17α-[(5-methylisoxazole-3-carbonyl)oxy]-3-oxo-androsta-1,4-diene-17β-carbothioic acid S-fluoromethyl ester]
plasma clearance (in words) [2]: approaching hepatic blood flow

time after dosing up to which quantifiable in plasma [3]: up to 8 hours
SMILES: CCC(=O)O[C@]1(C(=O)SCF)[C@H](C)C[C@H]2[C@@H]3C[C@H](F)C4=CC(=O)C=C[C@]4(C)[C@@]3(F)[C@@H](O)C[C@@]21C [Fluticasone propionate, 6α, 9α-Difluoro-17α-(1-oxopropoxy)-11β-hydroxy-16α-methyl-3-oxo-androsta-1,4-diene-17β-carbothioic acid S-fluoromethyl ester, reference compound]

SMILES: Cc1cc(C(=O)OC2(C(=O)SCF)C(C)CC3C4CC(F)C5=CC(=O)C=CC5(C)C4(F)C(O)CC32C)on1 (stereo not drawn) [Example 25, 6α,9α-Difluoro-11β-hydroxy-16α-methyl-17α-[(3-methylisoxazole-5-carbonyl)oxy]-3-oxo-androsta-1,4-diene-17β-carbothioic acid S-fluoromethyl ester]
plasma clearance (in words) [2]: approaching hepatic blood flow

SMILES: C[C@@H]1CC2C3C[C@H](F)C4=CC(=O)C=C[C@]4(C)[C@@]3(F)[C@@H](O)C[C@]2(C)[C@@]1(OC(=O)c1ccco1)C(=O)SCF (stereo partly drawn) [Example 1, 6α, 9α-Difluoro-17α-[(2-furanylcarbonyl)oxy]-11β-hydroxy-16α-methyl-3-oxo-androsta-1,4-diene-17β-carbothioic acid S-fluoromethyl ester]
clearance compared with fluticasone propionate (in words) ([4]; IV 0.1 mg/kg): similar | pharmacokinetic parameters compared with fluticasone propionate (in words) ([4]; IV mixture of the two compounds at 0.1 mg/kg): the same | manner of metabolism (in words) (human hepatocytes; human hepatocytes): metabolised in an identical manner to fluticasone propionate | 17-β acid metabolite production (human hepatocytes; subject 1, 0.2 million cells/mL): 48.9 pmol/h | 17-β acid metabolite production (human hepatocytes; subject 1, 0.7 million cells/mL): 73.3 pmol/h | 17-β acid metabolite production (human hepatocytes; subject 2, 0.2 million cells/mL): 118 pmol/h | 17-β acid metabolite production (human hepatocytes; subject 2, 0.7 million cells/mL): 903 pmol/h | 17-β acid metabolite production (human hepatocytes; subject 3, 0.7 million cells/mL): 580 pmol/h | AUC (0-inf) ([3]; Pig 1, intra-tracheal 1 mg dry powder blend in lactose): 0.254 ng·h/mL | AUC (0-inf) ([3]; Pig 2, intra-tracheal 1 mg dry powder blend in lactose): 0.221 ng·h/mL | time after dosing up to which quantifiable in plasma [3]: up to 2 hours | plasma clearance (in words) [2]: approaching hepatic blood flow | oral bioavailability ([2]; oral 0.1 mg/kg vs IV 0.1 mg/kg, 0.1 mg/kg): < 1% and 0.9% | manner of metabolism (in words) (rat hepatocytes): metabolised in an identical manner to fluticasone propionate

SMILES: CC1CC2C3CC(F)C4=CC(=O)C=CC4(C)C3(F)C(O)CC2(C)C1(OC(=O)c1ccsc1)C(=O)SCF (stereo not drawn) [Example 4, 6α,9α-Difluoro-11β-hydroxy-16α-methyl-3-oxo-17α-[(3-thienylcarbonyl)oxy]-androsta-1,4-diene-17β-carbothioic acid S-fluoromethyl ester]
plasma clearance (in words) [2]: approaching hepatic blood flow

SMILES: Cc1ccoc1C(=O)OC1(C(=O)SCF)C(C)CC2C3CC(F)C4=CC(=O)C=CC4(C)C3(F)C(O)CC21C (stereo not drawn) [Example 19, 6α,9α-Difluoro-11β-hydroxy-16α-methyl-17α-[(3-methylfuran-2-carbonyl)oxy]-3-oxo-androsta-1,4-diene-17β-carbothioic acid S-fluoromethyl ester]
plasma clearance (in words) [2]: approaching hepatic blood flow

SMILES: CC1CC2C3CC(F)C4=CC(=O)C=CC4(C)C3(F)C(O)CC2(C)C1(OC(=O)c1ccon1)C(=O)SCF (stereo not drawn) [Example 28, 6α,9α-Difluoro-11β-hydroxy-17α-[(isoxazole-3-carbonyl)oxy]-16α-methyl-3-oxo-androsta-1,4-diene-17β-carbothioic acid S-fluoromethyl ester]
plasma clearance (in words) [2]: approaching hepatic blood flow
